According to US11505592B2, “Diagnosis and therapy of multiple sclerosis” (PRINDEX S.R.L., priority 2015, dated 2022):

Tests used:
[1] = system: CTRL sera; assay: PEPSCAN-based ELISA, binding of control (CTRL) sera to library peptides; set-up: species or system human; conditions: ELISA binding value, CTRLs n = 10
Text: (§1) The linear and CLIPS peptides are synthesized based on the amino acid sequence of the target protein using standard Fmoc-chemistry and deprotected using […] with scavengers. The constrained peptides are synthesized on chemical scaffolds in order to reconstruct conformational epitopes, using Chemically Linked Peptides on Scaffolds (CLIPS) technology (Timmerman et al. (2007). For example, the single looped peptides are synthesized containing a dicysteine, which was cyclized by treating with alpha, alpha′-dibromoxylene and the size of the loop is varied by introducing cysteine residues at variable spacing. If other cysteines besides the newly introduced cysteines are present, they are replaced by alanine. The side-chains of the multiple cysteines in the peptides are coupled to CLIPS templates by reacting onto credit-card format polypropylene PEPSCAN cards (455 peptide formats/card) with a 0.5 mM solution of CLIPS template such as 1,3-bis (bromomethyl) benzene in ammonium bicarbonate (20 mM, pH 7.9)/acetonitrile (1:1(v/v)). The cards are gently shaken in the solution for 30 to 60 minutes while completely covered in solution. Finally, the cards are washed extensively with excess of H2O and sonicated in distrupt-buffer containing 1 percent SDS/0.1 percent beta-mercaptoethanol in PBS (pH 7.2) at 70° C. for 30 minutes, followed by sonication in H2O for another 45 minutes.
(§2) The binding of antibody to each peptide is tested in a PEPSCAN-based ELISA. The 455-well credit card format polypropylene cards containing the covalently linked peptides are incubated with primary antibody solution for example consisting of 1/1000 diluted serum in blocking solution, for example 4% horse serum, 5% ovalbumin (w/v) in PBS/1% Tween. After washing, the peptides are incubated with a 1/1000 dilution of antibody peroxidase conjugate for one hour at 25° C. After washing, the peroxidase substrate 2,2′-azino-di-3-ethylbenzthiazoline sulfonate (ABTS) and 2 microlitres of 3 percent H2O2 are added. After one hour, the color development are measured. The color development are quantified with a charge coupled device (CCD)-camera and an image processing system (Slootstra et al., 1996).
(§3) The raw data are optical values obtained by a CCD-camera calibrated to export absorption values compatible with a standard 96-well plate ELISA-reader. First the CCD-camera makes a picture of the card before peroxidase coloring and then again a picture after the peroxidase coloring. These two pictures are substracted from each other yielding a binding value for each peptide.
(§4) All peptides have been synthesized in a peptide array format and the binding of 20 different sera to all peptide libraries were measured in an ELISA based set up following the procedure described in detail in the method section “Peptide synthesis and screening assays”. In particular 2 sets of experiments were performed on the 2 libraries by using 2 different dilutions of the human patients sera. In the first set of experiment the 20 sera were used at 1:2500 dilutions, while in the second experiment the dilution of the sera was 1:1000. The binding of the different sera to all peptides was quantified and analyzed in detail (Tables 1 and 2, FIGS. 15A, B, C, D and […]

[2] = system: MS sera; assay: PEPSCAN-based ELISA, binding of MS sera to library peptides; set-up: species or system human; conditions: ELISA binding value, MS sera n = 9
Text: as §1, §2, §3, §4

VNARVNNSDPAAVAL [SEQ ID NO: 118] was tested, and the “MEAN CTRL” value ([1]; NOX2 library) was 219.15 and the “MEAN MS” value ([2]; NOX2 library) was 426.444.
For “CNSLMQLNDDTRLYCLSSEGSLSPSSLSC [Peptide 6]”, the “MEAN CTRL” value ([1]; 5HT2A receptor library) was 249.55 and the “MEAN MS” value ([2]; 5HT2A receptor library) was 418.89.
In the case of “CLSPSSLSLLHLQECMDILSEENTSLSSC [Peptide 10]”, the “MEAN CTRL” value ([1]; 5HT2A receptor library) is reported as 183.45 and the “MEAN MS” value ([2]; 5HT2A receptor library) is reported as 305.00.
For NFARKRIKNPAAGLY [SEQ ID NO: 77], the “MEAN CTRL” value ([1]; NOX2 library) was 323.85 and the “MEAN MS” value ([2]; NOX2 library) was 604.167.
“CFNVEWSVNARVNNSDCGDRQNESYLNFARKRC [SEQ ID NO: 129]” was tested, and the “MEAN CTRL” value ([1]; NOX2 library) was 423.15 and the “MEAN MS” value ([2]; NOX2 library) was 792.889.
“CVFKEGSSLLADDNCKESSNEDVIGALLC [Peptide 38]” was tested, and the “MEAN CTRL” value ([1]; 5HT2A receptor library) was 348.13 and the “MEAN MS” value ([2]; 5HT2A receptor library) was 594.61.
For WGKIKECPI [SEQ ID NO: 116], the “MEAN CTRL” value ([1]; NOX2 library) was 303.25 and the “MEAN MS” value ([2]; NOX2 library) was 501.389.
In the case of “CVFKEGSSLLADDNCSDAFNWTVDSENRC [Peptide 47]”, the “MEAN CTRL” value ([1]; 5HT2A receptor library) is reported as 244.50 and the “MEAN MS” value ([2]; 5HT2A receptor library) is reported as 399.89.
CQKISEWGKIKAAPIPC [SEQ ID NO: 153] was tested, and the “MEAN CTRL” value ([1]; NOX2 library) was 402.15 and the “MEAN MS” value ([2]; NOX2 library) was 710.778.
In the case of GKIKECPIP [SEQ ID NO: 102], the “MEAN CTRL” value ([1]; NOX2 library) is reported as 324.35 and the “MEAN MS” value ([2]; NOX2 library) is reported as 594.611.
“CTVDSENRTNLSSECRTNLSSEGSLSPSC [Peptide 25]” was tested, and the “MEAN CTRL” value ([1]; 5HT2A receptor library) was 296.95 and the “MEAN MS” value ([2]; 5HT2A receptor library) was 507.22.
For “CLYGYRWPLPSKLSCKESSNEDVIGALLC [Peptide 20]”, the “MEAN CTRL” value ([1]; 5HT2A receptor library) was 390.93 and the “MEAN MS” value ([2]; 5HT2A receptor library) was 689.03.
“CSYLNFARKRIKNPEGCQNESYLNFARKRIKNC [SEQ ID NO: 61]” was tested, and the “MEAN CTRL” value ([1]; NOX2 library) was 398.9 and the “MEAN MS” value ([2]; NOX2 library) was 778.278.
“CVNARVNNSDPYSVALCVSEQKISEWGKIKESC [SEQ ID NO: 128]” was tested, and the “MEAN CTRL” value ([1]; NOX2 library) was 436.575 and the “MEAN MS” value ([2]; NOX2 library) was 772.583.
In the case of “CQTAESLAVHNITVSECQNESYLNFARKRIKNC [SEQ ID NO: 100]”, the “MEAN CTRL” value ([1]; NOX2 library) is reported as 367.45 and the “MEAN MS” value ([2]; NOX2 library) is reported as 697.667.
For “CDSKVFKEGSSLLACKESSNEDVIGALLC [Peptide 16]”, the “MEAN CTRL” value ([1]; 5HT2A receptor library) was 347.50 and the “MEAN MS” value ([2]; 5HT2A receptor library) was 604.03.
With GYRWPLPSK [Peptide 14] the “MEAN CTRL” value ([1]; 5HT2A receptor library) was 322.80 and the “MEAN MS” value ([2]; 5HT2A receptor library) was 623.00.
“CTVDSENRTNLSSECMDILSEENTSLSSC [Peptide 13]” was tested, and the “MEAN CTRL” value ([1]; 5HT2A receptor library) was 160.80 and the “MEAN MS” value ([2]; 5HT2A receptor library) was 300.11.
“CNFARKRIKNPEGGLYCGDRQNESYLNFARKRC [SEQ ID NO: 117]” was tested, and the “MEAN CTRL” value ([1]; NOX2 library) was 425.15 and the “MEAN MS” value ([2]; NOX2 library) was 800.500.
With CQNESYLNFARKRIKNC [SEQ ID NO: 90] the “MEAN CTRL” value ([1]; NOX2 library) was 361.75 and the “MEAN MS” value ([2]; NOX2 library) was 667.389.
With YLNFARKRI [SEQ ID NO: 140] the “MEAN CTRL” value ([1]; NOX2 library) was 345.85 and the “MEAN MS” value ([2]; NOX2 library) was 601.667.
In the case of “CLSSEGSLSPSSLSCMDILSEENTSLSSC [Peptide 26]”, the “MEAN CTRL” value ([1]; 5HT2A receptor library) is reported as 188.85 and the “MEAN MS” value ([2]; 5HT2A receptor library) is reported as 320.72.
For “CSSLSLLHLQEKNWCMDILSEENTSLSSC [Peptide 45]”, the “MEAN CTRL” value ([1]; 5HT2A receptor library) was 198.50 and the “MEAN MS” value ([2]; 5HT2A receptor library) was 318.17.
With “CVSEQKISEWGKIKESCQNESYLNFARKRIKNC [SEQ ID NO: 64]” the “MEAN CTRL” value ([1]; NOX2 library) was 402.9 and the “MEAN MS” value ([2]; NOX2 library) was 804.556.
CLTILYGYRWPAASKLC [Peptide 41] was tested, and the “MEAN CTRL” value ([1]; 5HT2A receptor library) was 449.80 and the “MEAN MS” value ([2]; 5HT2A receptor library) was 782.33.
With “CLQDDSKVFKEGSSCMDILSEENTSLSSC [Peptide 7]” the “MEAN CTRL” value ([1]; 5HT2A receptor library) was 233.80 and the “MEAN MS” value ([2]; 5HT2A receptor library) was 434.67.
For NESYLNFARKRIKNP [SEQ ID NO: 109], the “MEAN CTRL” value ([1]; NOX2 library) was 333.75 and the “MEAN MS” value ([2]; NOX2 library) was 602.889.
